Reference: the CheMixHub drug solubility set

Test: xn = mol fraction of the nth substance listed, in the solute-free solvent

CC(N)C(=O)O (stereo not given) + O + CCCO
solubility (g/100 g solution)
Settings	x2 = 0.1	x2 = 0.2	x2 = 0.3	x2 = 0.4	x2 = 0.5	x2 = 0.6	x2 = 0.7	x2 = 0.8	x2 = 0.9
283.15 K	0.0276	0.0472	0.0784	0.143	0.358	0.635	1.29	2.39	4.58
293.15 K	0.0384	0.0536	0.0822	0.164	0.384	0.742	1.56	3.01	5.63
303.15 K	0.0461	0.0689	0.0947	0.202	0.439	0.892	1.89	3.69	6.82
313.15 K	0.0649	0.0791	0.109	0.224	0.504	1.12	2.27	4.41	8.24
323.15 K	0.0824	0.114	0.147	0.268	0.594	1.29	2.65	5.2	9.44

CC(C)OC(=O)C(C)NP(=O)(OCC1OC(n2ccc(=O)[nH]c2=O)C(C)(F)C1O)Oc1ccccc1 (stereo not given) + CC(C)=O + O
solubility (g/100 g solution)
Settings	278.15 K	283.15 K	288.15 K	293.15 K	298.15 K	303.15 K	308.15 K	313.15 K	318.15 K
x2 = 0.03333	0.447	0.659	0.884	1.19	1.57	2.08	2.72	3.52	4.39
x2 = 0.07199	1.86	2.63	3.43	4.47	5.72	7.3	9.16	11.4	13.7
x2 = 0.1174	3.81	5.24	6.7	8.54	10.7	13.3	16.2	19.6	23.1
x2 = 0.1714	5.39	7.25	9.19	11.6	14.2	17.4	21	25.1	29.1
x2 = 0.2368	6.68	8.82	11.1	13.8	16.9	20.4	24.2	28.4	32.6
x2 = 0.3176	8.37	10.8	13.6	16.7	20.2	24	28.1	32.4	36.8
x2 = 0.42	11.2	14.2	17.5	21.1	24.9	28.9	33.3	37.8	42.6
x2 = 0.5538	15	18.1	21.8	26.1	30.7	35.3	40.1	45	49.6
x2 = 0.7363	18.3	22.9	27.4	32.1	37.1	42.2	47	51.8	56.6

CN1CCN(C2=Nc3cc(Cl)ccc3Nc3ccccc32)CC1 + CC#N + O
solubility (g/100 g solution)
Settings	x2 = 0.04651	x2 = 0.0989	x2 = 0.1583	x2 = 0.2264	x2 = 0.3051	x2 = 0.397	x2 = 0.506	x2 = 0.6372	x2 = 0.798
278.15 K	0.00519	0.0208	0.0473	0.113	0.207	0.366	0.609	0.903	1.23
283.15 K	0.00691	0.0265	0.0589	0.138	0.248	0.431	0.707	1.04	1.39
288.15 K	0.00905	0.034	0.0735	0.168	0.296	0.507	0.817	1.18	1.55
293.15 K	0.0119	0.0432	0.0905	0.2	0.347	0.589	0.938	1.34	1.73
298.15 K	0.0151	0.0532	0.111	0.238	0.41	0.682	1.08	1.5	1.95
303.15 K	0.0193	0.0662	0.135	0.283	0.481	0.794	1.22	1.7	2.16
308.15 K	0.0247	0.0831	0.164	0.336	0.558	0.91	1.39	1.92	2.39
313.15 K	0.0308	0.101	0.197	0.398	0.642	1.05	1.56	2.11	2.64
318.15 K	0.0384	0.123	0.233	0.465	0.746	1.19	1.75	2.37	2.91
323.15 K	0.0473	0.15	0.281	0.542	0.855	1.35	1.96	2.63	3.2
328.15 K	0.059	0.178	0.335	0.625	0.985	1.53	2.18	2.9	3.49
